Here are results for 17 molecules from patent US5147604A, “Dioxo-aromatic compounds as oxygen scavengers” (Betz Laboratories, Inc., priority 1988, dated 1992).

Data set [1] in a line: Oxygen scavenging efficacy at elevated temperature and pressure in hot water flow system (Example 1, TABLE 1). The note with it: for % O2 Removed: 78°±3°C, 4±1 psig, contact 4±0.2 min, feedwater concentration, pH and initial O2 (ppm) vary by line of TABLE 1, values below 20% may be experimental artifacts; for oxygen scavenging (in words): test water, TABLE 1. How it is done: In a first series of tests, the oxygen scavenging efficacies of various materials were evaluated under conditions of elevated temperature and pressure. The test apparatus used was essentially a stainless steel hot water flow system equipped with appropriate monitoring instrumentation. Demineralized feedwater, adjusted to the appropriate pH and initial dissolved oxygen level (controlled by nitrogen sparging), was pumped from a reservoir at ambient temperature into a once-through heater. Temperature was monitored continuously by means of thermocouples at several locations along the length of the flow tubing. A solution containing the oxygen scavenger test material was loaded into a pump driven syringe and fed continuously to the heated flow stream through a port containing a stainless steel ribbon mixing baffle. The feedwater containing dissolved oxygen and the test material then traversed the flow tubing via a by-pass comprising an additional length of coiled tubing. Contact (or reaction) time of the test material and dissolved oxygen was governed by the choice of coil length. The tendency of the temperature to drop during residence in the coiled tubing was offset by the use of thermostatted heating tapes which maintained the temperature in this tubing at 78°±3°C. Upon exiting the coiled tubing, the stream flowed through a sample cooler to render the temperature of the liquid compatible with the operating range of a membrane-type dissolved oxygen probe. The cooled liquid was analyzed for dissolved oxygen via a D.O. flow cell, and pH was potentiometrically monitored in the flow tube immediately downstream of the D.O. probe. Outputs of the temperature, pH and dissolved oxygen probes during operation were monitored via strip chart recorders. The final destination of the reaction mixture was a reservoir which could be drained for analysis of reaction products, if desired.
Temperature in the system could be maintained at 78°±3° C. under 4±1 psig. Residence time of the feedwater in the flow tube from chemical feed point to D.O. flow cell outlet was 4±0.2 minutes. […] Entry into and residence in the sample cooler accounted for 0.5 minute of the total contact time. […]
The test solutions were prepared by initially mixing 10 grams of test material and 90 grams of demineralized water in glass bottles and allowing the mixture to remain in a shaker for several hours. If complete dissolution for a given material was observed after shaking, the pH of the solution was measured. When the pH of the solution was below 10.0, 7N sodium hydroxide was added dropwise until this value was reached. The quantity of added sodium hydroxide was recorded and later used in corrections for the active concentration of the solution. When the pH value of a stock solution was above pH 10.0 without requiring the addition of caustic, the solution was not further modified.
Results of these tests are reported in TABLE 1 below in terms of percent oxygen removed from the test stream. The precision of the initial and final dissolved oxygen values reported is approximately ±10%. […] The experimental uncertainties decrease with increasing values of percent dissolved oxygen removal.

Data set [2] is described as follows: Oxygen scavenging in feedwater of a working boiler, field-type conditions (Example 2, TABLES 2 and 3). The note with it: TABLE 2, actives 1.0-2.2 ppm, pH 8.7-9.4, steam load 11 or 15 (1000 lbs./hr.), initial O2 3.8-8 ppb by line.
The next data set relates to test rats. The settings on record: NIOSH Registry of Toxic Effects of Chemical Substances (1976); cited from earlier work.
A short description of data set [3]: Low (room) temperature reactivity with oxygen (Example 4, TABLE 5). The note with it: mole ratio of treatment to O2 and initial O2 by line of TABLE 5; for % O2 Removed, 1 Minute: room temperature 22.5-26.5 °C, pH 8.6-10.0; for % O2 Removed, 5 Minutes: room temperature 24.0-26.5 °C, pH 9.1-10.0. An excerpt:
In a further series of tests, the low (room) temperature reactivities with oxygen of various dioxo compounds were compared to that of hydrazine. The test apparatus basically consisted of a 1 liter three-necked flask fitted with a dissolved oxygen probe and a pH electrode. The intent of this apparatus was to show reaction kinetics differences rather than precise measurements (within seconds) of reaction times.
The flask was filled with deionized water which had been stripped of some dissolved oxygen by bubbling nitrogen through a diffuser stone. The pH was adjusted to the desired level with sodium hydroxide. The flask was sealed with a rubber septum, the dissolved oxygen probe and an inlet stopper. A magnetic stirrer bar was left in the flask for mixing. The mixer was turned on, and dissolved oxygen and temperature readings were recorded until the dissolved oxygen reached a constant value. Next, the appropriate quantity of additive was injected through the septum using a hypodermic syringe. The initial mole ratio of treatment to dissolved oxygen was determined by weighing feed chemical and measuring the oxygen concentration. […] Dissolved oxygen and temperature readings were then taken at appropriate time intervals.
The results of these tests are provided below in TABLE 5 in terms of relative amounts of % oxygen removed at the time intervals indicated (1 and 5 minutes).

For data set [4] the following is noted: to nitrogen, hydrogen and ammonia; cited from earlier work.
The nature of data set [5]: Thermal decomposition studies of aqueous solutions in autoclaves (Example 5, TABLE 6). The settings on record: hydrazine 60 ppm, 4 hours.

Molecules are shown by their SMILES.

Turning to `O=C1C=CC(=O)c2ccccc21` [1,4-naphthoquinone], the “% O2 Removed” value was determined as 99% in data set [1] and 88% in data set [2].
Turning to `O=Cc1ccc(O)cc1O` [2,4-dihydroxybenzaldehyde], in data set [1], the “% O2 Removed” value is reported as 14% and the “oxygen scavenging (in words)” value is listed as “ineffective”.
For `O=Cc1cc(O)ccc1O` [2,5-dihydroxybenzaldehyde], the “% O2 Removed” value in data set [1] worked out at 98%.
As to `O=[N+]([O-])c1ccccc1O` [2-nitrophenol], the “% O2 Removed” value in data set [1] was 0%.
For the molecule `O=Cc1ccc(O)c(O)c1` [3,4-dihydroxybenzaldehyde], in data set [1], the “% O2 Removed” value amounted to 73 ± 2%.
Consider `CC(C)(C)c1ccc(O)c(O)c1` [4-tert-butylcatechol], for which the “% O2 Removed” value in data set [1] worked out at 97%; in data set [2] it was 37%. For the same molecule, the “LD50 Oral Rat” value in the data set with test rats was 2820 mg/kg.
`O=C1C=CC(=O)C=C1` [benzoquinone]: in data set [1], the “% O2 Removed” value worked out at 96% and the “oxygen scavenging (in words)” value is recorded as “quite efficacious as an oxygen scavenger”. Besides, in data set [3], the “% O2 Removed, 1 Minute” value turned out to be 76% and the “% O2 Removed, 5 Minutes” value turned out to be 90%. In addition, the “% O2 Removed” value in data set [2] came to 57%.
As to `Oc1ccccc1O` [catechol], the “% O2 Removed” value in data set [1] was 96%. In data set [3], the “% O2 Removed, 1 Minute” value worked out at 7% and the “% O2 Removed, 5 Minutes” value is listed as 30%. The “LD50 Oral Rat” value in the data set on test rats was 3890 mg/kg. In addition, the “% O2 Removed” value in data set [2] is 75%.
With `NN` [hydrazine], in data set [4], the “temperature above which it decomposes” value is listed as “Above 400 ° F”. Besides, in the data set on test rats, the “LD50 Oral Rat” value is 60 mg/kg. Besides, the “% Decomposition” value in data set [5] (0 psig, 70 °F.) was found to be 0%; in data set [5] (1100 psig, 550 °F.), 52%; in data set [5] (1620 psig, 600 °F.), 79%; in data set [5] (2000 psig, 636 °F.) it was 93%.
On to `Oc1ccc(O)cc1` [hydroquinone], for which the “LD50 Oral Rat” value in the data set on test rats was 320 mg/kg.
Turning to `Cc1ccccc1O` [o-cresol], in data set [1], the “% O2 Removed” value is reported as 17%.
As for `Nc1ccccc1N` [o-phenylenediamine], the “oxygen scavenging (in words)” value in data set [1] is “ineffective”.
As for `O=C(O)c1ccc(O)cc1` [p-hydroxybenzoic acid], in data set [1], the “% O2 Removed” value stood at 13%.
Regarding `COc1ccc(O)cc1` [p-methoxyphenol], the “% O2 Removed” value in data set [1] was found to be 40%.
On to `Nc1ccc(N)cc1` [p-phenylenediamine], for which, in data set [1], the “oxygen scavenging (in words)” value is “ineffective”.
On to `Oc1ccc(-c2ccccc2)cc1` [p-phenylphenol], for which the “% O2 Removed” value in data set [1] is on record as 40%.
On to `Oc1cccc(O)c1` [resorcinol], for which the “oxygen scavenging (in words)” value in data set [1] is on record as “ineffective”.
